Key:
Candida albicans [1] = assay: Antifungal activity against Candida albicans DSY2621 by MTT assay; format: functional
Candida albicans [2] = assay: Antifungal activity against wild type Candida albicans CAF2-1 by MTT assay; format: functional

| SMILES | MIC (Candida albicans [1]) [µg] | MIC (Candida albicans [2]) [µg] |
| --- | --- | --- |
| COc1cccc2c3c(c(=O)[nH]c12)C=CC(C)(C)O3 | 15 |  |
| CC1(C)C=Cc2c(O)nc3ccccc3c2O1 [FLINDERSINE] | 15 |  |
| Clc1ccc(COC(Cn2ccnc2)c2ccc(Cl)cc2Cl)c(Cl)c1 (centres undefined) [MICONAZOLE] | 0.0006 | 0.0006 |

From ChEMBL document CHEMBL3867448, “Targeted Isolation of Indolopyridoquinazoline Alkaloids from Conchocarpus fontanesianus Based on Molecular Networks” (2016)
